Earlier results as cited in patent publication CN105130966A, “炔基化合物及其使用方法和用途” (Add And Open Up Scientific Co, priority 2014, dated 2015).

What was measured:
[1] = test system: any protein kinase tested (试验的任何蛋白激酶); settings: Cell, 2006, 125, 733-747
PI3Kδ = PI3Kδ (Mus musculus, UniProt O35904); settings: ovalbumin-induced airway inflammation; FASEB, 2006, 20, 455-465
Chain of PI3Kδ (O35904 whole entry): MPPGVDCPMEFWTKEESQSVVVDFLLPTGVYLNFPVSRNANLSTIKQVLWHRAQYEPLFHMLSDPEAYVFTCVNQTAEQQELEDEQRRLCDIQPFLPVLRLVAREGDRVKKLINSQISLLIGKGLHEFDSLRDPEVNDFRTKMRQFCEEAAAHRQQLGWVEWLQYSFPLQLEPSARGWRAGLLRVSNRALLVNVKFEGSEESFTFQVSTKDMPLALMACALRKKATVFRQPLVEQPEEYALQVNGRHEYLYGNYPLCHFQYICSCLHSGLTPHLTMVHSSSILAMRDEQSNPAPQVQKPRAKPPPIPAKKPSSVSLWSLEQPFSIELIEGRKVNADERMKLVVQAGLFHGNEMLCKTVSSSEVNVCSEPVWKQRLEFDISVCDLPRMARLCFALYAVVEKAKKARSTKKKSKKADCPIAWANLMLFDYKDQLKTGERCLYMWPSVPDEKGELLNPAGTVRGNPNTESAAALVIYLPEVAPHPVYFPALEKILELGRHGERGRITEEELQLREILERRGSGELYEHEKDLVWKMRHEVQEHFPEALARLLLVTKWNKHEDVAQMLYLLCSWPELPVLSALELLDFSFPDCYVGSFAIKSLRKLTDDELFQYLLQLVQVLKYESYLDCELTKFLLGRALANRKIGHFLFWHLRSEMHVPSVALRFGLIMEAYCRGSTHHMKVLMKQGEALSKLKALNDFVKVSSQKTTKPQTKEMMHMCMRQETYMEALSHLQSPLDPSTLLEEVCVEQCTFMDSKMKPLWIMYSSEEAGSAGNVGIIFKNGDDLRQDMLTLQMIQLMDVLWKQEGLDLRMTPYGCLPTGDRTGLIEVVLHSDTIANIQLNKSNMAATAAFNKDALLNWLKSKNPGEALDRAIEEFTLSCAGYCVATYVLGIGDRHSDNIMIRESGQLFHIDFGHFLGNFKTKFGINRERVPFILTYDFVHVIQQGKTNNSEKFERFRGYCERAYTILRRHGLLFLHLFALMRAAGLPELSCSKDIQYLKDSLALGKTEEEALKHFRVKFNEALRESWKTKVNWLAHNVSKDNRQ
Chain of PI3Kδ (P26450 whole entry partner): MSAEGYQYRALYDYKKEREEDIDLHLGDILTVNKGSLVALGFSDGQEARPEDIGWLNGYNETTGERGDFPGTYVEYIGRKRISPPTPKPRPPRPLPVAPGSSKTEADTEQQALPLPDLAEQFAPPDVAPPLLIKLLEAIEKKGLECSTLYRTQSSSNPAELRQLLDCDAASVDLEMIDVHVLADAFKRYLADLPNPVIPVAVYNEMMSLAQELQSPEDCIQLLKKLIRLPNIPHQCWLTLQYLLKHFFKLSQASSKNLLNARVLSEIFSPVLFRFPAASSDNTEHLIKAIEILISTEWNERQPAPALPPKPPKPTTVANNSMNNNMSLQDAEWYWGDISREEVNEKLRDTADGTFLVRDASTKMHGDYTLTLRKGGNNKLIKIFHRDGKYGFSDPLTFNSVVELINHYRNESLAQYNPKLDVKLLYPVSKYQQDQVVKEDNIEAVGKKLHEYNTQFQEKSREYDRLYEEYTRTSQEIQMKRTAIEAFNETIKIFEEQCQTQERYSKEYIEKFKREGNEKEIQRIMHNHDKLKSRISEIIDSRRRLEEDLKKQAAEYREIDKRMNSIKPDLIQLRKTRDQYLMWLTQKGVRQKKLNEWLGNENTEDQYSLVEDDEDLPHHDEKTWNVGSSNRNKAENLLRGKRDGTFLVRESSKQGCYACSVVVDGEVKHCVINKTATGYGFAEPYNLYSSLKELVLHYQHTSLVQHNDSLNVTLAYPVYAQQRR

Cc1ccccc1-n1c(Cn2cnc3c(N)ncnc32)nc2cccc(C)c2c1=O [IC87114]
activity [1]: 不显示活性
inflammation (PI3Kδ): 显著改善炎症
